Read-outs that look alike come from different tables or passages of the source.
Experiments:
[1] = Cell growth inhibition, CellTiter-Glo Luminescent Cell Viability Assay; type: cell-based
Protocol: Cell growth inhibitory activity of representative menin inhibitors was determined using CellTiter-Glo® Luminescent Cell Viability Assay. Cells were seeded in 384-well white opaque cell culture plates at a density of 2,000 cells/well with serially diluted compounds and incubated at 37° C. in an atmosphere of 95% air and 5% CO2 for 4 days. Cell viability was determined using the CellTiter-Glo® Luminescent Cell Viability Assay Kit (Promega, Madison, Wis.) according to the manufacture's instruction. Briefly, a volume of CellTiter-Glo® Reagent equal to the volume of cell culture medium was added to each well, and then the plates were incubated at room temperature for 10-20 minutes. The luminescent signal was measured using a Tecan Infinite M1000 multimode microplate reader (Tecan, Morrisville, N.C.). The half maximal inhibitory concentration (IC50) was calculated using the GraphPad Prism 5 software (GraphPad Software, La Jolla, Calif.).

[2] = target: menin protein (Homo sapiens (Human), UniProt O00255); assay: biochemical; type: binding; conditions: FP competitive binding; menin protein 4 nM, FAM-MM2 probe 2 nM; read-out: Menin Binding Affinity IC50
menin protein, sequence (O00255 whole entry): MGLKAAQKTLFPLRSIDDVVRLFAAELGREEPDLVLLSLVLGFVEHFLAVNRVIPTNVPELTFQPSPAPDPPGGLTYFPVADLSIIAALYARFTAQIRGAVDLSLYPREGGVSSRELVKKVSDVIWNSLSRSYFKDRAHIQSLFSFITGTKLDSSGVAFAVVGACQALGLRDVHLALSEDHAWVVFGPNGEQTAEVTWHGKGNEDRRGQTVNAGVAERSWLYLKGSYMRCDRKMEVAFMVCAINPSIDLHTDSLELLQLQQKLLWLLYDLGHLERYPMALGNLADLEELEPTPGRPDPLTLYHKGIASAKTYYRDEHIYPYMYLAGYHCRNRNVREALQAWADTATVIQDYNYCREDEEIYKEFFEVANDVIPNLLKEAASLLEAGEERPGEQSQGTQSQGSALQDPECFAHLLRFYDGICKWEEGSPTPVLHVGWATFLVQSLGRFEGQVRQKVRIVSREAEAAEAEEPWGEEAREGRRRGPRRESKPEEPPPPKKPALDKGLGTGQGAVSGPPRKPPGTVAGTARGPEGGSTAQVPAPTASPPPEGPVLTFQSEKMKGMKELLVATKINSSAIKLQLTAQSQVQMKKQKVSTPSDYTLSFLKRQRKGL
Outline: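 Competitive fluorescence polarization assay using FAM-labelled MLL1 peptide probe FAM-MM2 (2 nM final) preincubated with menin (4 nM final) in PBS with 0.02% bovine γ-globulin, 4% DMSO and 0.01% Triton X-100. Compounds were added and incubated 30 min at room temperature. IC50 came from nonlinear regression of competition curves, with Ki also derived.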

[3] = MOLM-13, 96 h, MOLM13 cells, 4 days, CellTiter-Glo, read-out: Cell Growth Inhibition IC50 (μM) MOLM13
[4] = MV4-11, 96 h, MV4, 11 cells, 4 days, CellTiter-Glo, read-out: Cell Growth Inhibition IC50 (μM) MV4, 11
[5] = MOLM-13, 96 h, read-out: Cell Growth Inhibition IC50 (μM) MOLM13, MOLM13 cells, 4 days, CellTiter-Glo
[6] = MV4-11, 96 h, read-out: Cell Growth Inhibition IC50 (μM) MV4, 11, MV4, 11 cells, 4 days, CellTiter-Glo

Structure (SMILES) | IC50 [1, 3] [µM] | IC50 [1, 4] [µM] | IC50 [2] [nM] | IC50 [1, 5] [µM] | IC50 [1, 6] [µM]
CCN1Cc2ccccc2C(C2CCCC2)(C2CCN(CC3CN(c4ccc(S(=O)(=O)C(F)(F)F)cc4)C3)CC2)C1 (stereo not drawn) [compound 145, 4-cyclopentyl-2-ethyl-4-(1-((1-(4-((trifluoromethyl)sulfonyl)phenyl)azetidin-3-yl)methyl)piperidin-4-yl)-1,2,3,4-tetrahydroisoquinoline] | 3.3 ± 0.5 | 1.6 ± 0.8 | 15 | – | –
N#CC(c1ccccc1)(C1CCN(CC2CN(c3ccc(S(=O)(=O)c4ccncc4)cc3)C2)CC1)[C@H]1CCC[C@@H]1OC(N)=O (mixture of isomers) [compound 211, rac-(1S,2R)-2-(cyano(phenyl)(1-((1-(4-(pyridin-4-ylsulfonyl)phenyl)azetidin-3-yl)methyl)piperidin-4-yl)methyl)cyclopentyl carbamate] | – | – | 9 | 0.546 | 0.302
CCN1Cc2ccccc2C(C2CCCC2)(C2CCN(CC3CN(c4ccc(S(=O)(=O)c5cnn(C)c5)cc4)C3)CC2)C1 (stereo not drawn) [compound 102, 4-cyclopentyl-2-ethyl-4-(1-((1-(4-((1-methyl-1H-pyrazol-4-yl)sulfonyl)phenyl)azetidin-3-yl)methyl)piperidin-4-yl)-1,2,3,4-tetrahydroisoquinoline] | 0.708 | 0.267 | 11 | – | –
CC(=O)O[C@H]1CCC[C@@H]1C(C#N)(c1ccccc1)C1CCN(CC2CN(c3ccc(S(=O)(=O)C4CC4)cc3)C2)CC1 (mixture of isomers) [compound 187, rac-(1S,2R)-2-(cyano(1-((1-(4-(cyclopropylsulfonyl)phenyl)azetidin-3-yl)methyl)piperidin-4-yl)(phenyl)methyl)cyclopentyl acetate] | – | – | 18 | 1.9 ± 0.7 | 1.2 ± 0.3
COC(=O)N[C@H]1CCC[C@@H]1C(C#N)(c1ccccc1)C1CCN(CC2CN(c3ccc(S(=O)(=O)C4CC4)cc3)C2)CC1 (mixture of isomers) [compound 319, rac-methyl ((1S,2R)-2-(cyano(1-((1-(4-(cyclopropylsulfonyl)phenyl)azetidin-3-yl)methyl)piperidin-4-yl)(phenyl)methyl)cyclopentyl)carbamate] | – | – | 31 | 2.77 | 0.33
O=S(=O)(CC1CCC1)c1ccc(N2CC(CN3CCC(C4(C5CCCC5)NCCc5ccccc54)CC3)C2)cc1 (stereo not drawn) [compound 86, 1-(1-((1-(4-((cyclobutylmethyl)sulfonyl)phenyl)azetidin-3-yl)methyl)piperidin-4-yl)-1-cyclopentyl-1,2,3,4-tetrahydroisoquinoline] | 1.2 ± 0.5 | 0.864 ± 0.017 | 55 | – | –
CNC(=O)O[C@H]1CCC[C@@H]1C(C#N)(c1ccccc1)C1CCN(CCCOc2ccc(C#N)cc2)CC1 (mixture of isomers) [compound 232, rac-(1S,2R)-2-(cyano(1-(3-(4-cyanophenoxy)propyl)piperidin-4-yl)(phenyl)methyl)cyclopentyl methylcarbamate] | – | – | 20 | 0.94 | 0.3
CC(=O)O[C@H]1CCC[C@@H]1C1(C2CCN(CCCOc3ccc(C#N)cc3)CC2)CN(C)Cc2ccc(F)cc21 (mixture of isomers) [compound 314, rac-(1S,2R)-2-(4-(1-(3-(4-cyanophenoxy)propyl)piperidin-4-yl)-6-fluoro-2-methyl-1,2,3,4-tetrahydroisoquinolin-4-yl)cyclopentyl acetate] | – | – | 31 | > 10 | 2.97
N#Cc1ccc(N2CC(CN3CCC(C4(C5CCCC5)CNCc5ccccc54)CC3)C2)cc1 (stereo not drawn) [compound 43, 4-(3-((4-(4-cyclopentyl-1,2,3,4-tetrahydroisoquinolin-4-yl)piperidin-1-yl)methyl)azetidin-1-yl)benzonitrile] | 2.1 | 0.896 ± 0.056 | 26 | – | –
CC(=O)N[C@H]1CCC[C@@H]1C(Cn1ccnc1)(c1ccccc1)C1CCN(CC2CN(c3ccc(S(=O)(=O)c4ccccc4)cc3)C2)CC1 (mixture of isomers) [compound 381, rac-N-((1S,2R)-2-(2-(1H-imidazol-1-yl)-1-phenyl-1-(1-((1-(4-(phenylsulfonyl)phenyl)azetidin-3-yl)methyl)piperidin-4-yl)ethyl)cyclopentyl) acetamide] | – | – | 13 | 0.67 | 0.14
COC(=O)N[C@H]1CCC[C@@H]1C(C#N)(c1ccccc1)C1CCN(CC2(C)CN(c3ccc(S(=O)(=O)c4cnn(C)c4)cc3)C2)CC1 (mixture of isomers) [compound 398, methyl rac-((1S,2R)-2-(cyano(1-((3-methyl-1-(4-((1-methyl-1H-pyrazol-4-yl)sulfonyl)phenyl)azetidin-3-yl)methyl)piperidin-4-yl)(phenyl)methyl)cyclopentyl) carbamate] | – | – | 167 | > 10 | 4.57
COC(=O)N[C@H]1CCC[C@@H]1C(C#N)(c1ccccc1)C1CCN(CC2CN(c3ccc(S(=O)(=O)c4cnn(C)c4)cc3)C2)CC1 (mixture of isomers) [Cpd. No. 349, methyl (rac-(1S,2R)-2-(cyano(1-((1-(4-((1-methyl-1H-pyrazol-4-yl)sulfonyl)phenyl)azetidin-3-yl)methyl)piperidin-4-yl)(phenyl)methyl)cyclopentyl)carbamate] | – | – | 15 | 0.87 | 0.44
COC(=O)N[C@H]1CCC[C@@H]1C(C#N)(c1ccccc1)C1CCN(CC2CN(c3ccc(S(=O)(=O)C4CC5CCC4C5)cc3)C2)CC1 (mixture of isomers) [compound 396, methyl rac-((1S,2R)-2-((1-((1-(4-(bicyclo[2.2.1]heptan-2-ylsulfonyl)phenyl)azetidin-3-yl)methyl)piperidin-4-yl)(cyano)(phenyl)methyl)cyclopentyl)carbamate] | – | – | 12 | 1.46 | 0.46
CCc1cnccc1S(=O)(=O)c1ccc(N2CC(CN3CCC(C4(C5CCCC5)CN(CC)Cc5ccccc54)CC3)C2)cc1 (stereo not drawn) [compound 156, 4-cyclopentyl-2-ethyl-4-(1-((1-(4-((3-ethylpyridin-4-yl)sulfonyl)phenyl)azetidin-3-yl)methyl)piperidin-4-yl)-1,2,3,4-tetrahydroisoquinoline] | 1.8 | 0.654 | 8 | – | –
CC(=O)O[C@H]1CCC[C@@H]1C1(C2CCN(CC3CN(c4ccc(S(=O)(=O)c5ccncc5)cc4)C3)CC2)CN(C)Cc2ccccc21 (mixture of isomers) [compound 206, rac-(1S,2R)-2-(2-methyl-4-(1-((1-(4-(pyridin-4-ylsulfonyl)phenyl)azetidin-3-yl)methyl)piperidin-4-yl)-1,2,3,4-tetrahydroisoquinolin-4-yl)cyclopentyl acetate] | – | – | 3 | 0.411 ± 0.3 | 0.119 ± 0.048
CCN1Cc2ccccc2C(C2CCCC2)(C2CCN(CC3CN(c4ccc(S(=O)(=O)c5ccn(C)c5)cc4)C3)CC2)C1 (stereo not drawn) [compound 101, 4-cyclopentyl-2-ethyl-4-(1-((1-(4-((1-methyl-1H-pyrrol-3-yl)sulfonyl)phenyl)azetidin-3-yl)methyl)piperidin-4-yl)-1,2,3,4-tetrahydroisoquinoline] | 0.73 | 0.3 | 10 | – | –
O=S(=O)(c1ccc(N2CC(CN3CCC(C4(C5CCCC5)NCCc5ccccc54)CC3)C2)cc1)C1CCC1 (stereo not drawn) [compound 85, 1-(1-((1-(4-(cyclobutylsulfonyl)phenyl)azetidin-3-yl)methyl)piperidin-4-yl)-1-cyclopentyl-1,2,3,4-tetrahydroisoquinoline] | 4.2 | 1.6 | 36 | – | –

Source: patent publication US10899738B2 (THE REGENTS OF THE UNIVERSITY OF MICHIGAN, priority 2016, dated 2021)
